Laboratory results as given in patent US11980600B2, “Diagnostic assay and treatment for preeclampsia” (MIRZYME THERAPEUTICS LIMITED, priority 2015, dated 2024).

Assays:
[1] = tested on: Ad-sFlt-1 injected Hmox1+/− pregnant mice; assay: Rescue of preeclampsia phenotype in timed pregnant Hmox1+/- mice injected with Ad-sFlt-1; format: in vivo; details: for signs of preeclampsia overall: Ad-sFlt-1, agent given alone; for average fetal weight / fetal resorption rate / mean arterial blood pressure (MAP) / hypertension / proteinuria (24 h urinary albumin:creatinine ratio): Ad-sFlt-1, day 18 of gestation
Description: Pregnant mice studies were carried out ten to twelve-week-old Hmox1^+/− mice and Hmox1^+/+ mice or wild-type C57/B16 mice. The first day of pregnancy (E0.5) was defined by the presence of a vaginal plug the following morning. On E10.5 (second trimester) pregnant mice were injected with 1×10^9 PFU of Ad-sFlt-1 or Ad-CMV (control) adenovirus by injection into the tail vein. For RUPP study, on day 13 of gestation, time pregnant C57/Bl6 mice were anesthetized. An incision was made down the midline of the body and the abdominal aorta was isolated. The vessel was then restricted with 7.0 suture tied around a blunt needle (approximate diameter of 1 mm^2) placed on the aorta. The needle was then removed. Right ovarian artery was restricted with 7.0 suture. The incisions were closed and the mice were allowed to recover for five days. For the low-dose sFlt-1 experiment, 1×10^8 PFU of adenovirus expressing sFlt-1 was used. On E17.5 mice were individually placed in metabolic cages for 24 hours and arterial blood pressure was measured at E18.5 as described previously (Wang et al. 2013). In brief, mice were anesthetized by using a ketamine/xylazine cocktail, and the carotid artery was isolated and cannulated with a Millar 1-French Mikro-Tip pressure catheter connected to a pressure transducer (ADInstruments Ltd, Oxford, UK). After 30 minutes of blood pressure stabilization, arterial pressure was recorded and averaged over an additional 10-minute period. Following measurements, blood sampling was undertaken, the animals were euthanized, and their kidneys, livers, and placentas were collected. The live fetuses and placentas were counted and weighed. All experimentation was conducted in accordance with the United Kingdom Animals (Scientific Procedures) Act, 1986 with the use of procedures approved by the University Ethical Review Committee.
(§1) Urinary albumin was determined using Albuwell-M kits (Exocell Inc, Philadelphia, PA). Enzyme-linked immunosorbent assay kits for human and murine sFlt-1, KIM-1, and PIGF were obtained from R&D Systems and performed according to the manufacturer's specifications.

[2] = tested on: Ad-sFlt-1 injected Hmox1−/− mice; assay: Co-treatment rescue study of renal injury in non-pregnant Hmox1-/- mice injected with Ad-sFlt-1; format: in vivo; details: for proteinuria (24 h urinary albumin:creatinine ratio) / urinary KIM-1 levels: high sFlt-1; for renal glomerulosclerosis and mesangiolysis (glomerular histology): high sFlt-1, nor-NOHA daily i.p., L-arginine 25 g/L in drinking water
Description: Non-pregnant studies were carried out twelve-week-old Hmox1^−/− mice and Hmox1^+/+ mice. Animals were injected with 1×10^9 PFU of Ad-sFlt-1 or Ad-CMV (control) adenovirus by injection into the tail vein. Nine days after adenovirus administration, mice were individually placed in metabolic cages for 24 hours. Body weight, food and water intake, and urine volume were measured. Following urine measurements, blood sampling was undertaken on day 10, the animals were euthanized, and their kidneys and livers were collected for further analysis. Co-treatment rescue studies using arginase inhibitor and/or L-arginine supplementation were also undertaken in non-pregnant Hmox1^−/− mice and Hmox1^+/+ animals. Mice were injected intraperitoneally with nor-NOHA (Bachem, Bubendorf, Switzerland) daily. L-arginine (Sigma-Aldrich, St. Louis, MO) was given to the animals by supplementing the drinking water with 25 g/L one week before the Ad-sFlt-1 adenovirus injection and until the end of the study.
as §1
Human and murine placental tissues were prepared for immunohistochemistry as previously described. Immunohistochemistry was performed by using antibodies to Arginase-1, Ass1, Asl, and 3-nitrotyrosine. The following antibodies were used: (1) anti-arginase-1 antibody (1:50, Genetex); (2) anti-argininosuccinate synthase (1:100), Abcam); (3) anti-argininosuccinate lyase (1:100, Abcam) and (4) anti-3-Nitrotyrosine (1:100 dilution, Abcam). Sections from mouse kidneys or human placental biopsies were rehydrated, blocked with the use of normal serum, and incubated with primary antibody for 2 hours at room temperature. Visualization was performed by using a Vectastain ABC kit, with DAB. Slides were counterstained with hematoxylin. The staining was analysed by using a Nikon inverted microscope and Image Pro-Plus image analysis software.

Row | SMILES | signs of preeclampsia overall [1] | average fetal weight [1] | fetal resorption rate [1] | mean arterial blood pressure (MAP) / hypertension [1] | proteinuria (24 h urinary albumin:creatinine ratio) [1] | proteinuria (24 h urinary albumin:creatinine ratio) [2] | urinary KIM-1 levels [2] | renal glomerulosclerosis and mesangiolysis (glomerular histology) [2]
1 | N=C(N)NCCC[C@H](N)C(=O)O [L-arginine] | failed to abolish all signs of preeclampsia | no significant improvement | no significant improvement | significantly reduced | no significant improvements | improvements were absent | improvements were absent | improvements were absent
2 | N=C(NO)NCC[C@H](N)C(=O)O [nor-NOHA, N-w-hydroxy-L-nor-arginine] | failed to abolish all signs of preeclampsia | no significant effect | reduced | no significant effect | no significant improvements | improvements were absent | improvements were absent | improvements were absent
